How the values were obtained:
Type in all cases: cell-based
BT-549 = experiment: Breast cancer cell viability, 48 hours, MTA assay; settings: 48 hours; for Synergy: BT-549, combination with cmpd A, Chou-Talalay CI; for IC50: Homo sapiens, BT-549, single agent, read-out: IC50
Source text: (§1) Cell viabilities were used to calculate “Fraction Affected” (Fa) and “Combination Index” (CI) values using the Chou-Talalay method. Any combination with a CI value<0.70 at a Fa value between 0.25 and 0.75 was defined as positive synergy.

BT474 = experiment: Breast cancer cell viability, 48 hours, MTA assay; settings: 48 hours; for Synergy: BT474, combination with cmpd A, Chou-Talalay CI; for IC50: Homo sapiens, BT-474, BT474, single agent, read-out: IC50
Source text: as §1

Bcap-37 = experiment: Breast cancer cell viability, 48 hours, MTA assay; settings: 48 hours; for Synergy: Bcap-37, combination with cmpd A, Chou-Talalay CI; for IC50: Homo sapiens, Bcap37, Bcap-37, single agent, read-out: IC50
Source text: as §1

HCC1937 = experiment: Breast cancer cell viability, 48 hours, MTA assay; settings: 48 hours; for Synergy: HCC1937, combination with cmpd A, Chou-Talalay CI; for IC50: Homo sapiens, HCC1937, single agent, read-out: IC50
Source text: as §1

HCC38 = experiment: Breast cancer cell viability, 48 hours, MTA assay; settings: 48 hours; for Synergy: HCC38, combination with cmpd A, Chou-Talalay CI; for IC50: Homo sapiens, HCC38, single agent, read-out: IC50
Source text: as §1

Hs578T = experiment: Breast cancer cell viability, 48 hours, MTA assay; settings: Hs578T, 48 hours; for IC50: Homo sapiens, Hs-578T, single agent, read-out: IC50; for Synergy: combination with cmpd A, Chou-Talalay CI
Source text: as §1

MCF-7 = experiment: Breast cancer cell viability, 48 hours, MTA assay; settings: 48 hours; for IC50: Homo sapiens, MCF7, MCF-7, single agent, read-out: IC50; for Synergy: MCF-7, combination with cmpd A, Chou-Talalay CI
Source text: as §1

MDA-MB-231 = experiment: Breast cancer cell viability, 48 hours, MTA assay; settings: 48 hours; for IC50: Homo sapiens, MDA-MB-231, single agent, read-out: IC50; for Synergy: MDA-MB-231, combination with cmpd A, Chou-Talalay CI
Source text: as §1

MDA-MB-361 = experiment: Breast cancer cell viability, 48 hours, MTA assay; settings: 48 hours; for IC50: Homo sapiens, MDA-MB-361, single agent, read-out: IC50
Source text: as §1

MDA-MB-436 = experiment: Breast cancer cell viability, 48 hours, MTA assay; settings: 48 hours; for IC50: Homo sapiens, MDA-MB-436, single agent, read-out: IC50
Source text: as §1

MDA-MB-453 = experiment: Breast cancer cell viability, 48 hours, MTA assay; settings: 48 hours; for IC50: Homo sapiens, MDA-MB-453, single agent, read-out: IC50; for Synergy: MDA-MB-453, combination with cmpd A, Chou-Talalay CI
Source text: as §1

MDA-MB-468 = experiment: Breast cancer cell viability, 48 hours, MTA assay; settings: 48 hours; for IC50: Homo sapiens, MDA-MB-468, single agent, read-out: IC50; for Synergy: MDA-MB-468, combination with cmpd A, Chou-Talalay CI
Source text: as §1

MX-1 = experiment: Breast cancer cell viability, 48 hours, MTA assay; settings: 48 hours; for IC50: Homo sapiens, MX1, MX-1, single agent, read-out: IC50; for Synergy: MX-1, combination with cmpd A, Chou-Talalay CI
Source text: as §1

SK-BR-3 = experiment: Breast cancer cell viability, 48 hours, MTA assay; settings: 48 hours; for IC50: Homo sapiens, SK-BR-3, single agent, read-out: IC50; for Synergy: SK-BR-3, combination with cmpd A, Chou-Talalay CI
Source text: as §1

T-47D* = experiment: Breast cancer cell viability, 48 hours, MTA assay; settings: T-47D*, 48 hours; for IC50: Homo sapiens, T47D, single agent, read-out: IC50; for Synergy: combination with cmpd A, Chou-Talalay CI
Source text: as §1

ZR-75-1 = experiment: Breast cancer cell viability, 48 hours, MTA assay; settings: 48 hours; for IC50: Homo sapiens, ZR-75-1, single agent, read-out: IC50; for Synergy: ZR-75-1, combination with cmpd A, Chou-Talalay CI
Source text: as §1

[1] = test system: Her2+ breast cancer cells

Row | IC50 (BT-549) [nM] | IC50 (BT474) [nM] | IC50 (Bcap-37) [nM] | IC50 (HCC1937) [nM] | IC50 (HCC38) [µM] | IC50 (Hs578T) [nM] | IC50 (MCF-7) [nM] | IC50 (MDA-MB-231) [nM] | IC50 (MDA-MB-361) [µM] | IC50 (MDA-MB-436) [µM] | IC50 (MDA-MB-453) [nM] | IC50 (MDA-MB-468) [nM] | IC50 (MX-1) [nM] | Compound | Synergy (BT-549) | Synergy (BT474) | Synergy (Bcap-37) | Synergy (HCC1937) | Synergy (HCC38) | Synergy (Hs578T) | Synergy (MDA-MB-468) | further results
1 | 30 | 190 | 170 | 240 | 0.18 | 1560 | 820 | 730 | 0.17 | 0.17 | 220 | 100 | 240 | COc1cccc2c1C(=O)c1c(O)c3c(c(O)c1C2=O)C[C@@](O)(C(=O)CO)C[C@@H]3O[C@H]1C[C@H](N)[C@H](O)[C@H](C)O1 [Doxorubicin] | S (Any combination with a CI value<0.70 at a Fa value between 0.25 and 0.75 was defined as positive synergy) | S (Any combination with a CI value<0.70 at a Fa value between 0.25 and 0.75 was defined as positive synergy) | S (Any combination with a CI value<0.70 at a Fa value between 0.25 and 0.75 was defined as positive synergy) | S (Any combination with a CI value<0.70 at a Fa value between 0.25 and 0.75 was defined as positive synergy) | S (Any combination with a CI value<0.70 at a Fa value between 0.25 and 0.75 was defined as positive synergy) | S (Any combination with a CI value<0.70 at a Fa value between 0.25 and 0.75 was defined as positive synergy) | S (Any combination with a CI value<0.70 at a Fa value between 0.25 and 0.75 was defined as positive synergy) | Synergy (MDA-MB-231): S (Any combination with a CI value<0.70 at a Fa value between 0.25 and 0.75 was defined as positive synergy); Synergy (MX-1): S (Any combination with a CI value<0.70 at a Fa value between 0.25 and 0.75 was defined as positive synergy); IC50 (SK-BR-3): 120 nM; Synergy (SK-BR-3): S (Any combination with a CI value<0.70 at a Fa value between 0.25 and 0.75 was defined as positive synergy); IC50 (T-47D*): 150 nM; Synergy (T-47D*): S (Any combination with a CI value<0.70 at a Fa value between 0.25 and 0.75 was defined as positive synergy); IC50 (ZR-75-1): 130 nM; Synergy (ZR-75-1): S (Any combination with a CI value<0.70 at a Fa value between 0.25 and 0.75 was defined as positive synergy)
2 | 1660 | 90 | 2480 | 2450 | 7.44 | 1110 | 430 | 1690 | 3.27 | 3.27 | 290 | 2930 | 560 | CS(=O)(=O)N1CCN(Cc2cc3nc(-c4cccc5[nH]ncc45)nc(N4CCOCC4)c3s2)CC1 [GDC-0941] | S (Any combination with a CI value<0.70 at a Fa value between 0.25 and 0.75 was defined as positive synergy) | S (Any combination with a CI value<0.70 at a Fa value between 0.25 and 0.75 was defined as positive synergy) | S (Any combination with a CI value<0.70 at a Fa value between 0.25 and 0.75 was defined as positive synergy) | S (Any combination with a CI value<0.70 at a Fa value between 0.25 and 0.75 was defined as positive synergy) | S (Any combination with a CI value<0.70 at a Fa value between 0.25 and 0.75 was defined as positive synergy) | S (Any combination with a CI value<0.70 at a Fa value between 0.25 and 0.75 was defined as positive synergy) | S (Any combination with a CI value<0.70 at a Fa value between 0.25 and 0.75 was defined as positive synergy) | Synergy (MCF-7): S (Any combination with a CI value<0.70 at a Fa value between 0.25 and 0.75 was defined as positive synergy); Synergy (MDA-MB-231): S (Any combination with a CI value<0.70 at a Fa value between 0.25 and 0.75 was defined as positive synergy); Synergy (MDA-MB-361; MDA-MB-361, combination with cmpd A, Chou-Talalay CI): S (Any combination with a CI value<0.70 at a Fa value between 0.25 and 0.75 was defined as positive synergy); Synergy (MDA-MB-436; MDA-MB-436, combination with cmpd A, Chou-Talalay CI): S (Any combination with a CI value<0.70 at a Fa value between 0.25 and 0.75 was defined as positive synergy); Synergy (MDA-MB-453): S (Any combination with a CI value<0.70 at a Fa value between 0.25 and 0.75 was defined as positive synergy); Synergy (MX-1): S (Any combination with a CI value<0.70 at a Fa value between 0.25 and 0.75 was defined as positive synergy); IC50 (SK-BR-3): 220 nM; Synergy (SK-BR-3): S (Any combination with a CI value<0.70 at a Fa value between 0.25 and 0.75 was defined as positive synergy); IC50 (T-47D*): 620 nM; Synergy (T-47D*): S (Any combination with a CI value<0.70 at a Fa value between 0.25 and 0.75 was defined as positive synergy); IC50 (ZR-75-1): 210 nM; Synergy (ZR-75-1): S (Any combination with a CI value<0.70 at a Fa value between 0.25 and 0.75 was defined as positive synergy); cytotoxicity of the combination with Compound A [1]: synergistic cytotoxicity

Row | Compound | IC50 (BT-549) [nM] | IC50 (BT474) [nM] | IC50 (Bcap-37) [nM] | IC50 (HCC1937) [nM] | IC50 (HCC38) [µM] | IC50 (Hs578T) [nM] | IC50 (MCF-7) [nM] | IC50 (MDA-MB-231) [nM] | IC50 (MDA-MB-361) [µM] | IC50 (MDA-MB-436) [µM] | IC50 (MDA-MB-453) [nM] | IC50 (MDA-MB-468) [nM] | IC50 (MX-1) [nM] | Synergy (BT-549) | Synergy (BT474) | Synergy (Bcap-37) | Synergy (HCC1937) | Synergy (HCC38) | Synergy (Hs578T) | Synergy (MDA-MB-468) | further results
3 | CS(=O)(=O)CCNCc1ccc(-c2ccc3ncnc(Nc4ccc(OCc5cccc(F)c5)c(Cl)c4)c3c2)o1 [Lapatinib] | 6530 | 40 | 10900 | 5560 | 5.05 | 5770 | 5780 | 7170 | 9.31 | 9.31 | 130 | 5600 | 1010 | S (Any combination with a CI value<0.70 at a Fa value between 0.25 and 0.75 was defined as positive synergy) | S (Any combination with a CI value<0.70 at a Fa value between 0.25 and 0.75 was defined as positive synergy) | S (Any combination with a CI value<0.70 at a Fa value between 0.25 and 0.75 was defined as positive synergy) | S (Any combination with a CI value<0.70 at a Fa value between 0.25 and 0.75 was defined as positive synergy) | S (Any combination with a CI value<0.70 at a Fa value between 0.25 and 0.75 was defined as positive synergy) | S (Any combination with a CI value<0.70 at a Fa value between 0.25 and 0.75 was defined as positive synergy) | S (Any combination with a CI value<0.70 at a Fa value between 0.25 and 0.75 was defined as positive synergy) | Synergy (MCF-7): S (Any combination with a CI value<0.70 at a Fa value between 0.25 and 0.75 was defined as positive synergy); Synergy (MDA-MB-453): S (Any combination with a CI value<0.70 at a Fa value between 0.25 and 0.75 was defined as positive synergy); Synergy (MX-1): S (Any combination with a CI value<0.70 at a Fa value between 0.25 and 0.75 was defined as positive synergy); IC50 (SK-BR-3): 60 nM; Synergy (SK-BR-3): S (Any combination with a CI value<0.70 at a Fa value between 0.25 and 0.75 was defined as positive synergy); IC50 (T-47D*): 23300 nM; Synergy (T-47D*): S (Any combination with a CI value<0.70 at a Fa value between 0.25 and 0.75 was defined as positive synergy); IC50 (ZR-75-1): 2690 nM; Synergy (ZR-75-1): S (Any combination with a CI value<0.70 at a Fa value between 0.25 and 0.75 was defined as positive synergy); cytotoxicity of the combination with Compound A [1]: synergistic cytotoxicity
